Test results taken from PMC3714282, “Pharmacometabolomics of Response to Sertraline and to Placebo in Major Depressive Disorder – Possible Role for Methoxyindole Pathway” (PLoS ONE, 2013).

Tested on: serum metabolites (tryptophan, tyrosine, purine pathways, antioxidants)
Assay: LCECA metabolomic profiling of serum: change from baseline at week 1 and week 4 (all, responders, non-responders)
Assay type: in vivo, human
Conditions: serum; for Change 5-HT / Change 5-HTP / Change 5-MTPOL / Change 7-MXAN / Change ATOCO / Change CYS / Change DIOHMAL / Change DOPAC / Change DTOCO / Change GR / Change GRMP / Change GSH / Change HGA / Change HVA / Change HX / Change KYN / Change LD / Change MEL / Change METH / Change MHPG / Change NA-5-HT / Change TRP / Change TRPOL / Change TYR / Change UA / Change VMA / Change XAN / Change XANTH / Change 3-OHKY / Change 3-OMD / Change 4-HBAC / Change 4-HPAC / Change 4-HPLA / Change 5-HIAA: log-transformed concentration; for Change in ratio 3-OHKY/5-HT, Estimate / Change in ratio 3-OHKY/5-HTP, Estimate / Change in ratio 3-OHKY/5-MTPOL, Estimate / Change in ratio 3-OHKY/MEL, Estimate / Change in ratio 3-OHKY/NA-5-HT, Estimate / Change in ratio 3-OHKY/TRP, Estimate / Change in ratio KYN/5-HT, Estimate / Change in ratio KYN/5-HTP, Estimate / Change in ratio KYN/5-MTPOL, Estimate / Change in ratio KYN/MEL, Estimate / Change in ratio KYN/NA-5-HT, Estimate / Change in ratio KYN/TRP, Estimate: pre- to post-treatment (four weeks)
From the text: Study participants were outpatients, 18–65 years of age, from various clinical sites across the United States. […] A complete description of the inclusion and exclusion used in this study can be found in Table S1. The study protocol was developed in accordance with the principles of the Declaration of Helsinki. All patients provided written informed consent. The study was sponsored and monitored by Pfizer, Inc. Each site's institutional review board approved and oversaw the study. The primary outcome measure was the HAMD17, used to assess depressive symptom severity. Measures were gathered at baseline, and weeks 1 and 4 of treatment at the patient's visits. Serum samples were collected using standard protocol at baseline, week 1 and week 4 of treatment at the clinic visits. Whole blood was collected in serum collection tubes and inverted 5–8 times. Serum samples were allowed to clot at room temperature for 60 minutes and then centrifuged at 1,300×g for 15 minutes. Following centrifugation supernatant was frozen at −80°C until analysis.
Samples were analyzed using a liquid chromatography electrochemical array (LCECA) platform that has been extensively validated and used in our prior studies in neurodegenerative and psychiatric disorders [30]–[34]. The method includes multiple compounds from the tyrosine, tryptophan, sulfur amino acids and purine pathways, and markers of oxidative stress and protection (for the list of metabolites and abbreviations see Table 1). Levels of 5-Methoxytryptamine (5-MTPM) were measured using a gas chromatography time-of-flight-mass spectrometry (GCTOF-MS) platform. Samples were prepared for analysis as previously described. During the sample preparation, pools were created from equal volumes of subaliquots of all samples. Concentrations of metabolites in the individual samples were expressed as a percentage of the concentration of those metabolites in the averaged pool.
Data preprocessing: We first removed the metabolites that have more than 40% missing values. […] Principal components analysis (PCA; SIMCA-P+12.0) was used to identify outliers. The analysis was performed for each time point. […] Subjects with ≥3 standard deviations away from the center of data cloud within two principal components (PC's) scores scatter plot were considered outliers and were removed from further analysis.
These analyses were conducted separately for the sertraline and placebo groups. Between groups t-tests were used to compare baseline to one week and baseline to four week change scores between the sertraline and placebo groups.
Signatures of response to sertraline and placebo were identified by using paired t-tests to compare week 4 metabolite levels to baseline metabolite levels in the responders and non-responders to therapy. […] These analyses were also performed to evaluate changes in ratios of individual metabolites within (e.g., 5-HT/5-HTP) and between branches of tryptophan pathway (e.g., KYN/MEL).

[1] = after four weeks, sertraline group
[2] = after one week, responders to sertraline
[3] = after one week, sertraline group

## CN[C@H]1CC[C@@H](c2ccc(Cl)c(Cl)c2)c2ccccc21 [Sertraline, sertraline]
[1]
  Change 5-HT: −1.9
  Change 5-HTP: 0.12
  Change 5-MTPOL: 0.13
  Change 7-MXAN: 0.083
  Change ATOCO: 0.63
  Change CYS: −0.0014
  Change DIOHMAL: 0.37
  Change DOPAC: −0.014
  Change DTOCO: 0.71
  Change GR: 0.0002
  Change GRMP: 0.052
  Change GSH: 0.014
  Change HGA: 0.4
  Change HVA: 0.1
  Change HX: −0.0057
  Change KYN: 0.045
  Change LD: 0.12
  Change MEL: 0.49
  Change METH: 0.2
  Change MHPG: −0.21
  Change NA-5-HT: 0.041
  Change TRP: 0.07
  Change TRPOL: 0.061
  Change TYR: 0.13
  Change UA: −0.058
  Change VMA: −0.015
  Change XAN: −0.16
  Change XANTH: 0.047
[2]
  Change 3-OHKY: -0.02
  Change 3-OMD: -0.18
  Change 4-HBAC: 0.49
  Change 4-HPAC: 0.47
  Change 4-HPLA: 0.18
  Change 5-HIAA: -0.14
  Change 5-HT: -0.79
  Change 5-HTP: -0.06
  Change 5-MTPOL: 0.15
  Change 7-MXAN: -0.51
  Change ATOCO: 0.4
  Change CYS: 0.0024
  Change DIOHMAL: 0.2
  Change DOPAC: -0.048
  Change DTOCO: 0.75
  Change GR: 0.17
  Change GRMP: -0.0083
  Change GSH: -0.02
  Change HGA: 0.19
  Change HVA: 0.13
  Change HX: -0.075
  Change KYN: 0.052
  Change LD: 0.13
  Change MEL: 0.41
  Change METH: 0.0032
  Change MHPG: -0.33
  Change NA-5-HT: -0.022
  Change TRP: 0.044
  Change TRPOL: 0.082
  Change TYR: -0.027
  Change UA: -0.048
  Change VMA: 0.1
  Change XAN: -0.21
  Change XANTH: 0.033
[3]
  Change 3-OHKY: −0.074
  Change 3-OMD: −0.12
  Change 4-HBAC: −0.085
  Change 4-HPAC: 0.29
  Change 4-HPLA: 0.1
  Change 5-HIAA: −0.17
  Change 5-HT: −0.75
  Change 5-HTP: −0.11
  Change 5-MTPOL: 0.041
  Change 7-MXAN: −0.099
  Change ATOCO: 0.21
  Change CYS: −0.034
  Change DIOHMAL: 0.18
  Change DOPAC: −0.13
  Change DTOCO: 0.3
  Change GR: −0.23
  Change GRMP: −0.011
  Change GSH: −0.013
  Change HGA: 0.28
  Change HVA: 0.053
  Change HX: −0.07
  Change KYN: −0.045
  Change LD: 0.081
  Change MEL: 0.34
  Change METH: 0.097
  Change MHPG: −0.17
  Change NA-5-HT: 0.0079
  Change TRP: 0.0036
  Change TRPOL: 0.033
  Change TYR: 0.083
  Change UA: −0.077
  Change VMA: 0.11
  Change XAN: −0.19
  Change XANTH: 0.082
Nonresponder to sertraline
  Change in ratio 3-OHKY/5-HT, Estimate: 0.69
  Change in ratio 3-OHKY/5-HTP, Estimate: −0.099
  Change in ratio 3-OHKY/5-MTPOL, Estimate: −0.035
  Change in ratio 3-OHKY/MEL, Estimate: −0.11
  Change in ratio 3-OHKY/NA-5-HT, Estimate: 0.0038
  Change in ratio 3-OHKY/TRP, Estimate: −0.04
  Change in ratio KYN/5-HT, Estimate: 0.72
  Change in ratio KYN/5-HTP, Estimate: −0.076
  Change in ratio KYN/5-MTPOL, Estimate: −0.012
  Change in ratio KYN/MEL, Estimate: −0.085
  Change in ratio KYN/NA-5-HT, Estimate: 0.027
  Change in ratio KYN/TRP, Estimate: −0.017
Responder to sertraline
  Change in ratio 3-OHKY/5-HT, Estimate: 0.97
  Change in ratio 3-OHKY/5-HTP, Estimate: 0.025
  Change in ratio 3-OHKY/5-MTPOL, Estimate: −0.043
  Change in ratio 3-OHKY/MEL, Estimate: −0.27
  Change in ratio 3-OHKY/NA-5-HT, Estimate: −0.00032
  Change in ratio 3-OHKY/TRP, Estimate: 0.013
  Change in ratio KYN/5-HT, Estimate: 0.95
  Change in ratio KYN/5-HTP, Estimate: 0.0057
  Change in ratio KYN/5-MTPOL, Estimate: −0.062
  Change in ratio KYN/MEL, Estimate: −0.28
  Change in ratio KYN/NA-5-HT, Estimate: −0.019
  Change in ratio KYN/TRP, Estimate: −0.006
